From US7858630B2, “D3 and 5-HT2A receptor modulators” (Hoffmann-La Roche Inc., priority 2008, dated 2010)

Experiments:
[1] = target: T1, human dopamine D3 receptor (Homo sapiens, UniProt P35462); assay: Radioligand binding ([3H]-spiperone) to membranes of HEK-293 EBNA cells expressing human D3 receptor; settings: human D3, 0.5 nM [3H]-spiperone, HEK-293 EBNA membranes, 1 h at RT
T1 construct: expressed in transfected cells; host or cells: HEK-293 EBNA cells, transient transfection; membrane preparation
Description: (§1) The ability of the compounds to bind to the 5-HT2A, D3 and D2 receptors was determined using radioligand binding to cloned receptors selectively expressed in HEK-293 EBNA cells.
(§2) Membrane Preparation for Human D2, Human D3 and Human 5-HT2A Receptors
(§3) HEK-293 EBNA cells were transiently transfected with expression plasmids encoding for the human D2 or D3 dopamine- or for the human 5-HT2A serotonin receptor, respectively. The cells were harvested 48 h post-transfection, washed three times with cold PBS and stored at −80° C. prior to use. The pellet was suspended in cold 50 mM Tris-HCl buffer containing 10 mM EDTA (pH 7.4) and homogenized with a Polytron (Kinematica AG, Basel, Switzerland) for 20-30 sec at 12.000 rpm. After centrifugation at 48.000×g for 30 min at 4° C., the pellet was resuspended in cold 10 mM Tris-HCl buffer containing 0.1 mM EDTA (pH 7.4), homogenized, and centrifuged as above. This pellet was further resuspended in a smaller volume of ice cold 10 mM Tris-HCl buffer containing 0.1 mM EDTA (pH 7.4) and homogenized with a Polytron for 20-30 sec at 12.000 rpm. The protein content of this homogenate was determined with the Bio-Rad (Bradford) Protein Assay (Biorad Laboratories GmbH, München, Germany) according to the instructions of the manufacturer using gamma globulin as the standard. This homogenate was stored at −80° C. in aliquots and thawed immediately prior to use.
(§4) Radioligand Binding Assay Conditions
(§5) Aliquots of membrane preparations were thawed at RT, resupended in assay buffer (D2, D3: 50 mM Tris-HCl, 120 mM NaCl, 5 mM MgCl2, 1 mM EDTA, 5 mM KCl, 1.5 mM CaCl2, pH=7.4; 5-HT2A: 50 mM Tris-HCl, 10 mM MgCl2, 1 mM EGTA, pH=7.4), homogenized with a Polytron for 20-30 sec at 12.000 rpm and adjusted to a final concentration of approximately 7.5 μg protein/well (D2, D3) and 15 μg protein/well (5-HT2A), respectively.
(§6) The binding affinity (Ki) of the compounds was determined using radioligand binding. Membranes were incubated in a total volume of 200 μl with a fixed concentration of radioligand (final concentration approximately 0.7 nM [^3H]-spiperone for D2, 0.5 nM [^3H]-spiperone for D3, and 1.1 nM [^3H]-ketanserin for 5-HT2A) and ten concentrations of test compound in ranging between 10 μM-0.1 nM for 1 h at RT. At the end of the incubation, the reaction mixtures were filtered on to unifilter 96-well white microplates with bonded GF/C filters (Packard BioScience, Zurich, Switzerland; preincubated for 1 h in 0.1% polyethylenimine (PEI) in assay buffer) with a Filtermate 196 harvester (Packard BioScience) and washed 3 times with cold assay buffer. The nonspecific binding was determined with equally composed reaction mixtures in the presence of 10 μM unlabelled spiperone. Per well 45 μl of Microscint 40 (Perkin Elmer, Schwerzenbach, Switzerland) was added, plates for sealed, shaken for 20 min and counted for 3 min on a Topcount Microplate Scintillation Counter (Canberra Packard SA, Zurich, Switzerland) with quenching correction.
(§7) The CPM value for each duplicate of a concentration of competing compound was averaged (y1), then the % specific binding was calculated according to the equation (((y1−non-specific)/(total binding-non-specific))×100). Graphs were plotted with the % specific binding using XLfit, a curve fitting program that iteratively plots the data using Levenburg Marquardt algorithm. The single site competition analysis equation used was y=A+((B−A)/(1+((x/C)^D))), where y is the % specific binding, A is the minimum y, B is the maximum y, C is the IC50, x is the log10 of the concentration of the competing compound and D is the slope of the curve (the Hill Coefficient). From these curves the IC50 (inhibition concentration at which 50% specific binding of the radioligand was displaced) and Hill coefficient were determined. […]

[2] = target: T2, human serotonin 5-HT2A receptor (Homo sapiens, UniProt P28223); assay: Radioligand binding ([3H]-ketanserin) to membranes of HEK-293 EBNA cells expressing human 5-HT2A receptor; settings: 1.1 nM [3H]-ketanserin, HEK-293 EBNA membranes, 1 h at RT
T2 construct: expressed in transfected cells; host or cells: HEK-293 EBNA cells, transient transfection; membrane preparation
Description: as §1, §2, §3, §4, §5, §6, §7

[3] = target: T3, human dopamine D2 receptor (Homo sapiens, UniProt P14416); assay: Radioligand binding ([3H]-spiperone) to membranes of HEK-293 EBNA cells expressing human D2 receptor; settings: human D2, 0.7 nM [3H]-spiperone, HEK-293 EBNA membranes, 1 h at RT
T3 construct: expressed in transfected cells; host or cells: HEK-293 EBNA cells, transient transfection; membrane preparation
Description: as §1, §2, §3, §4, §5, §6, §7

T3 sequence (P14416 whole entry): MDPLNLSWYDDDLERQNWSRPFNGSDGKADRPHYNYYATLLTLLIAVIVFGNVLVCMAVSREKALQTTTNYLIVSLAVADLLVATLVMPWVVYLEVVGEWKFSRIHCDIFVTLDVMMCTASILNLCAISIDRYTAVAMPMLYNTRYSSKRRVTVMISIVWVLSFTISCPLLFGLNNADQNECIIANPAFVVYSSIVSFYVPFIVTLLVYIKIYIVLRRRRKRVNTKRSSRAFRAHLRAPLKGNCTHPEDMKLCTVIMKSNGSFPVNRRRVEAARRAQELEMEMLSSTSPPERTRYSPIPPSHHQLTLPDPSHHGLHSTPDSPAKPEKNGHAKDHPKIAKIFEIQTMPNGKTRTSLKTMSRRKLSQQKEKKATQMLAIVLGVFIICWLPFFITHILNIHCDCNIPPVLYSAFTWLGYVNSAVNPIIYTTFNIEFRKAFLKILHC
T2 sequence (P28223 whole entry): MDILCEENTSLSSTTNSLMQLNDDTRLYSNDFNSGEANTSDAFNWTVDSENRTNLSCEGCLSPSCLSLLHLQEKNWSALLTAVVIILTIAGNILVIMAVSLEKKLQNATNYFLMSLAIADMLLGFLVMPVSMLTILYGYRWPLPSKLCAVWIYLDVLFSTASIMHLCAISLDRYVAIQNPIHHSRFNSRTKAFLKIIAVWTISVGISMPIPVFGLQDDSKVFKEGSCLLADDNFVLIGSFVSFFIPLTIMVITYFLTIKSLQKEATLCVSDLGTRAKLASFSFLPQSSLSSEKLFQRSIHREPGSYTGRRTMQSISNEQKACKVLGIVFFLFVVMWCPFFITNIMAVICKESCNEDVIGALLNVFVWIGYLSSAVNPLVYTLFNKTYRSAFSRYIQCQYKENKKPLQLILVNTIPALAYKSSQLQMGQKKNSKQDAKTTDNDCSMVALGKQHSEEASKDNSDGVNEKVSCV
T1 sequence (P35462 whole entry): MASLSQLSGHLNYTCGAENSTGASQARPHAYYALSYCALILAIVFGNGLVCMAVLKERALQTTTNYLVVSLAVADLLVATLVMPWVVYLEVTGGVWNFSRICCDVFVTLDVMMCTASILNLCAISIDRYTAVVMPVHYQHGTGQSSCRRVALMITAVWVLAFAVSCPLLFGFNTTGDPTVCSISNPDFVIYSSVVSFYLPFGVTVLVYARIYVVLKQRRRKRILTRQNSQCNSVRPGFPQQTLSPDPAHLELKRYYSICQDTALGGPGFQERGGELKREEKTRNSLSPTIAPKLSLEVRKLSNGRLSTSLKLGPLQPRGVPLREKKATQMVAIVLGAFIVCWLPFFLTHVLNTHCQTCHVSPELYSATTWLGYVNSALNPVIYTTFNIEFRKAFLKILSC

| Compound | Ki [1] | Ki [2] | Ki [3] |
| --- | --- | --- | --- |
| CO[C@H]1CC[C@H](CC(=O)N[C@H]2CC[C@H](CCN3CCN(c4noc5cc(Cl)ccc45)CC3)CC2)CC1 [Example 31, N-trans-(4-{2-[4-(6-Chloro-benzo[d]isoxazol-3-yl)-piperazin-1-yl]-ethyl}-cyclohexyl)-2-trans-(4-methoxy-cyclohexyl)-acetamide] | 0.00889 µM | 0.0029 µM | 4.99 µM |
| COC1CCN(CC(=O)N[C@H]2CC[C@H](CCN3CCN(c4noc5ccc(F)cc45)CC3)CC2)CC1 [Example 25, N-trans-(4-{2-[4-(5-Fluoro-benzo[d]isoxazol-3-yl)-piperazin-1-yl]-ethyl}-cyclohexyl)-2-(4-methoxy-piperidin-1-yl)-acetamide] | 0.0141 µM | 0.0133 µM | 0.496 µM |
| COC(CC(=O)N[C@H]1CC[C@H](CCN2CCN(c3noc4cc(F)c(Cl)cc34)CC2)CC1)OC [Example 78, N-trans-(4-{2-[4-(5-Chloro-6-fluoro-benzo[d]isoxazol-3-yl)-piperazin-1-yl]-ethyl}-cyclohexyl)-3,3-dimethoxy-propionamide] | 0.00626 µM | 0.00505 µM | 1.31 µM |
| O=C(N[C@H]1CC[C@H](CCN2CCN(c3noc4cc(F)c(Cl)cc34)CC2)CC1)c1ccc(Cl)s1 [Example 84, 5-Chloro-thiophene-2-carboxylic acid N-trans-(4-{2-[4-(5-chloro-6-fluoro-benzo[d]isoxazol-3-yl)-piperazin-1-yl]-ethyl}-cyclohexyl)-amide] | 0.00294 µM | 0.00711 µM | 0.258 µM |
| COc1ccc(C(=O)N[C@H]2CC[C@H](CCN3CCN(c4noc5cc(F)c(Cl)cc45)CC3)CC2)s1 [Example 85, 5-Methoxy-thiophene-2-carboxylic acid N-trans-(4-{2-[4-(5-chloro-6-fluoro-benzo[d]isoxazol-3-yl)-piperazin-1-yl]-ethyl}-cyclohexyl)-amide] | 0.0082 µM | 0.00747 µM | 0.368 µM |
| COC(CC(=O)N[C@H]1CC[C@H](CCN2CCN(c3noc4ccc(F)cc34)CC2)CC1)OC [Example 26, N-trans-(4-{2-[4-(5-Fluoro-benzo[d]isoxazol-3-yl)-piperazin-1-yl]-ethyl}-cyclohexyl)-3,3-dimethoxy-propionamide] | 0.00212 µM | 0.0159 µM | 0.761 µM |
| CO[C@H]1CC[C@H](C(=O)N[C@H]2CC[C@H](CCN3CCN(c4noc5cc(Cl)ccc45)CC3)CC2)CC1 [Example 54, 4-trans-Methoxy-cyclohexanecarboxylic acid N-trans-(4-{2-[4-(6-chloro-benzo[d]isoxazol-3-yl)-piperazin-1-yl]-ethyl}-cyclohexyl)-amide] | 0.0502 µM | 0.0083 µM | 3.85 µM |
| O=C(CC1COC1)N[C@H]1CC[C@H](CCN2CCN(c3noc4cc(Cl)ccc34)CC2)CC1 [Example 47, N-trans-(4-{2-[4-(6-Chloro-benzo[d]isoxazol-3-yl)-piperazin-1-yl]-ethyl}-cyclohexyl)-2-oxetan-3-yl-acetamide] | 0.00814 µM | 0.00659 µM | 0.238 µM |

More lines, in order of falling Ki [1], values ahead:

| Ki [1] | Ki [2] | Ki [3] | Compound |
| --- | --- | --- | --- |
| 0.0199 µM | 0.0204 µM | 0.632 µM | O=C(CC1COCCO1)N[C@H]1CC[C@H](CCN2CCN(c3noc4cc(F)c(Cl)cc34)CC2)CC1 (stereo partly drawn) [Example 76, N-trans-(4-{2-[4-(5-Chloro-6-fluoro-benzo[d]isoxazol-3-yl)-piperazin-1-yl]-ethyl}-cyclohexyl)-2-[1,4]dioxan-2-yl-acetamide] |
| 0.0188 µM | 0.0104 µM | 0.193 µM | O=C(N[C@H]1CC[C@H](CCN2CCN(c3noc4cc(Cl)ccc34)CC2)CC1)C1CCOC1 (stereo partly drawn) [Example 34, Tetrahydro-furan-3-carboxylic acid N-trans-(4-{2-[4-(6-chloro-benzo[d]isoxazol-3-yl)-piperazin-1-yl]-ethyl}-cyclohexyl)-amide] |
| 0.0165 µM | 0.00336 µM | 0.517 µM | O=C(CO)N[C@H]1CC[C@H](CCN2CCN(c3noc4ccccc34)CC2)CC1 [Example 4, N-trans-{4-[2-(4-Benzo[d]isoxazol-3-yl-piperazin-1-yl)-ethyl]-cyclohexyl}-2-hydroxy-acetamide] |
| 0.0125 µM | 0.00819 µM | 0.314 µM | O=C(N[C@H]1CC[C@H](CCN2CCN(c3noc4cc(Cl)ccc34)CC2)CC1)C1(O)CC1 [Example 38, 1-Hydroxy-cyclopropanecarboxylic acid N-trans-(4-{2-[4-(6-chloro-benzo[d]isoxazol-3-yl)-piperazin-1-yl]-ethyl}-cyclohexyl)-amide] |
| 0.0124 µM | 0.0116 µM | 4.07 µM | O=C(N[C@H]1CC[C@H](CCN2CCN(c3noc4cc(F)c(Cl)cc34)CC2)CC1)C1CCC1 [Example 92, Cyclobutanecarboxylic acid N-trans-(4-{2-[4-(5-chloro-6-fluoro-benzo[d]isoxazol-3-yl)-piperazin-1-yl]-ethyl}-cyclohexyl)-amide] |
| 0.0121 µM | 0.0252 µM | 0.891 µM | CC1(C)CC(CC(=O)N[C@H]2CC[C@H](CCN3CCN(c4noc5ccc(F)cc45)CC3)CC2)CCO1 (mixture of isomers) [Example 18, Rac-2-(2,2-Dimethyl-tetrahydro-pyran-4-yl)-N-trans-(4-{2-[4-(5-fluoro-benzo[d]isoxazol-3-yl)-piperazin-1-yl]-ethyl}-cyclohexyl)-acetamide] |
| 0.0101 µM | 0.00274 µM | 0.683 µM | CO[C@H]1CC[C@H](CC(=O)N[C@H]2CC[C@H](CCN3CCN(c4noc5cc(Cl)ccc45)CC3)CC2)C1 (relative stereo) [Example 36, N-trans-(4-{2-[4-(6-Chloro-benzo[d]isoxazol-3-yl)-piperazin-1-yl]-ethyl}-cyclohexyl)-2-trans-(3-methoxy-cyclopentyl)-acetamide] |
| 0.0101 µM | 0.00659 µM | 0.325 µM | CC(C)(O)CC(=O)N[C@H]1CC[C@H](CCN2CCN(c3noc4cc(Cl)ccc34)CC2)CC1 [Example 44, N-trans-(4-{2-[4-(6-Chloro-benzo[d]isoxazol-3-yl)-piperazin-l-yl]-ethyl}-cyclohexyl)-3-hydroxy-3-methyl-butyramide] |
| 0.00918 µM | 0.00865 µM | 0.675 µM | CC(=O)N[C@H]1CC[C@H](CCN2CCN(c3noc4cc(Cl)ccc34)CC2)CC1 [Example 30, N-trans-(4-{2-[4-(6-Chloro-benzo[d]isoxazol-3-yl)-piperazin-1-yl]-ethyl}-cyclohexyl)-acetamide] |
| 0.00438 µM | 0.00528 µM | 11.1 µM | CSCCC(=O)N[C@H]1CC[C@H](CCN2CCN(c3noc4cc(F)c(Cl)cc34)CC2)CC1 [Example 81, N-trans-(4-{2-[4-(5-Chloro-6-fluoro-benzo[d]isoxazol-3-yl)-piperazin-1-yl]-ethyl}-cyclohexyl)-3-methylsulfanyl-propionamide] |
| 0.00274 µM | 0.00514 µM | 0.172 µM | O=C(CC(F)(F)F)N[C@H]1CC[C@H](CCN2CCN(c3noc4cc(Cl)ccc34)CC2)CC1 [Example 53, N-trans-(4-{2-[4-(6-Chloro-benzo[d]isoxazol-3-yl)-piperazin-1-yl]-ethyl}-cyclohexyl)-3,3,3-trifluoro-propionamide] |
